According to PubChem BioAssay (NCI):
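How tested: cells in 96-well plates exposed to compound for 48 hours at five concentrations. GI50 marks 50% less growth. TGI: concentration producing complete growth inhibition.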

Experiments:
Test in all cases: NCI tumour cell line growth inhibition, 48 h
[1] = test system: DMS 114 small cell lung
[2] = test system: DMS 273 small cell lung
[3] = test system: KM20L2 colon
[4] = test system: SNB-78 CNS
[5] = test system: BT-549 breast
[6] = test system: MDA-N
[7] = test system: NCI/ADR-RES ovarian
[8] = test system: PC-3 prostate
[9] = test system: RXF-631 renal
[10] = test system: P388 leukemia
[11] = test system: SN12K1 renal

SMILES	TGI [1] [µM]	TGI [2] [µM]	TGI [3] [µM]	TGI [4] [µM]	TGI [5] [µM]	TGI [7] [µM]	TGI [8] [µM]	TGI [9] [µM]	other results
COc1ccc(C=O)cc1O[Si](C)(C)C(C)(C)C	> 100	> 100	> 100	> 100	–	–	–	–	–
COC(=O)C(=O)CC(=O)CCn1[nH]c(=O)c(Cl)c(Cl)c1=O	> 100	> 100	> 100	> 100	–	–	–	–	–
NCCCNCCS	–	> 100	> 100	> 100	> 100	> 100	> 100	> 100	TGI [6]: > 100 µM
Cc1ccc(S(=O)(=O)N/N=C2\CCCCC23CCC(=O)NC3)cc1 (configuration not stated)	> 100	> 100	> 100	> 100	–	–	–	> 100	–
CNC(=O)OCc1nc(SSC(C)(C)C)n(C)c1COC(=O)NC	4.15	17.3	25.6	21.2	2.83	20.3	21	3.42	TGI [6]: 6.59 µM; TGI [10]: > 100 µM; TGI [11]: 14.9 µM
CCCC1(CC(=O)O)OCCc2c1[nH]c1ccccc21 (configuration not stated)	> 100	> 100	> 100	> 100	–	–	–	–	–
Oc1ccc2ccccc2c1N=Nc1cccc2ccccc12	–	–	–	–	> 100	> 100	> 100	–	TGI [6]: > 100 µM
CCCCCCCCCCCC(=O)OCCOCCOCCOCCOCCOC(=O)CCCCCCCCCCC	> 100	> 100	> 100	> 100	–	–	–	> 100	–
COc1ccc(NC(=O)CC/C(CC(=O)c2ccco2)=N/NC(=O)C(N)=O)cc1	> 100	> 100	> 100	–	–	–	–	–	–
COCCOC(=O)C1=C(O)c2ccccc2S(=O)(=O)N1C	–	–	–	–	–	> 100	> 100	–	TGI [6]: > 100 µM
CC1(O)C(C)(O)C2(C)O[Te]3(OC12C)OC1(C)C(C)(O)C(C)(O)C1(C)O3 (configuration not stated)	54.4	67.3	–	> 100	–	–	–	> 100	–
O=C(Nc1ccc(Cl)cc1)C1C(=O)C(=O)N(c2ccc(Cl)cc2)C1=O (configuration not stated)	> 100	> 100	> 100	> 100	–	–	–	> 100	–
CC(C)(C)c1cc([N+](=O)[O-])cc([N+](=O)[O-])c1O	–	–	–	–	–	> 10	> 10	–	TGI [6]: > 10 µM
COc1cc(C=O)c(-c2c(C=O)ccc3c2OCO3)c(OC)c1OC	> 100	> 100	> 100	> 100	–	–	–	> 100	–
Cc1ccc(C2=C(c3ccc(C)cc3)C3(c4ccc(C)cc4)C4C(=O)OC(=O)C4C2(c2ccc(C)cc2)S3=O)cc1 (configuration not stated)	–	–	–	–	> 100	> 100	> 100	–	GI50 [5]: 23.9 µM; GI50 [7]: 46.4 µM; GI50 [8]: 25 µM
N#CCC(=O)N/N=C1/C(=O)N(c2ccc(Cl)cc2)C(=O)C(=O)C1c1nc2ccccc2s1 (configuration not stated)	> 100	> 100	> 100	> 100	–	–	–	–	–
Cc1ccc(S(=O)(=O)N=Nc2c(O)[nH]c3cc(O)c(C(=O)O)cc23)cc1	–	–	–	–	> 100	> 100	> 100	–	TGI [6]: > 100 µM
O=C1N/C(=C\[N+](=O)[O-])c2ccccc21	> 100	> 100	> 100	> 100	–	–	–	> 100	–
O=C(Nc1cccc(O)c1)C(=O)C1C(=O)NC(=S)NC1=O	> 100	> 100	> 100	> 100	–	–	–	–	–
CCOC(=O)[CH-]C(=O)C12CC3CC(CC(C3)C1)C2.CCOC(=O)[CH-]C(=O)C12CC3CC(CC(C3)C1)C2.CC[O-].CC[O-].[Ti+4]	> 100	> 100	> 100	> 100	–	–	–	> 100	GI50 [1]: > 100 µM; GI50 [2]: > 100 µM; GI50 [3]: > 100 µM; GI50 [9]: > 100 µM; GI50 [4]: > 100 µM
Cc1ccc(S(=O)(=O)OC2CC=CC2)cc1	> 100	> 100	> 100	> 100	–	–	–	–	–
Cn1c(Cl)c(/C=C2/C(=O)Nc3ccccc32)c2ccccc21	–	–	–	–	3.87	3.57	> 33.7	–	GI50 [5]: 0.243 µM; GI50 [7]: 0.371 µM; GI50 [8]: 0.859 µM
O=C1C=C(Nc2ccccc2C(=O)CC(=O)C(=O)Nc2cccc([N+](=O)[O-])c2)c2ccccc2C1=O	84.9	> 100	> 100	> 100	–	–	–	> 100	–
CN(C)CCOc1ccc([N+](=O)[O-])c2cccnc12	–	–	–	–	> 100	> 100	> 100	–	TGI [6]: > 100 µM
Cc1cn(-c2cc(NC(=O)c3cccc(C#Cc4cccc5[nH]nc(N)c45)c3)cc(C(F)(F)F)c2)cn1	–	–	–	–	80.4	> 100	26.7	–	GI50 [5]: 5.21 µM; GI50 [7]: 13.5 µM; GI50 [8]: 6.46 µM
COc1ccc2c(c1)OC1=C(C(=O)OC1)C2c1cc(OC)c2c(c1)OCCO2 (configuration not stated)	–	–	–	–	28.8	0.0915	> 100	–	GI50 [5]: 0.131 µM; GI50 [7]: 0.0279 µM; GI50 [8]: 0.0487 µM
